What all share (format): cell-based, BALB/c mice
Assay [1] concerns CD4+ lymphocytes expressing IL-4. Kind of assay: Intracellular cytokine staining of CD4+ T cells producing IL-4 (flow cytometry). The conditions noted are these: ovalbumin + 100 μM peptide, ovalbumin alone 90.21 ± 8.02. On the procedure:
(§1) The levels of mRNA encoding IL-4, IL-13 and IFN-gamma were also evaluated by semiquantitative RT-PCR analysis. Ovalbumin-induced expression of both IL-4 and IL-13 mRNA was inhibited in splenocytes cultured with the STAT-6-IP and not the STAT-6-CP. […] The number of CD4+ T cells producing IL-4 was also quantified by intracellular cytokine staining. When splenocytes from ovalbumin-sensitized mice were cultured with ovalbumin, there was a significant increase in the number of CD4+ lymphocytes expressing IL-4 (Table 4). The increase in IL-4 expression was abrogated in splenocytes cultured with ovalbumin in the presence of the STAT-6-IP, while the STAT-6-CP had no effect.
BALB/c mice were sensitized systemically by two weekly i.p. injections of 0.025% ovalbumin mixed with 4 mg/mL Al(OH)3. One week after the second sensitization, mice were sacrificed and spleens harvested. A single cell suspension of splenocytes (5×10^6 cells/mL) was cultured in RPMI-1640 medium containing 10% heat-inactivated fetal bovine serum and 2 mM L-glutamine, 50 μM 2-mercaptoethanol, 100 U/mL penicillin, and 100 μg/mL streptomycin sulfate. […] After four days, culture supernatants were harvested to quantify cytokine production by ELISA. […] Cytokine expression was monitored by flow cytometry and analyzed using CELLQUEST™ software (Becton Dickinson). […]
For orientation: A flow cytometer gives signals particle by particle.

The subject of a further assay is IL-13. Kind of assay: Ovalbumin-induced IL-13 production by splenocytes from ovalbumin-sensitized mice (ELISA). The conditions noted are these: ovalbumin 100 μg/mL + 100 μM peptide added daily, four days; ovalbumin alone 2585.4 ± 165.7. As for the experimental part:
(§2) Splenocytes from ovalbumin-sensitized mice were cultured for four days with no antigen, with ovalbumin alone, or with ovalbumin plus the STAT-6-IP or a STAT-6 Tyr-641 mutant (STAT-6-CP; Tyr-Ala-Arg-Ala-Ala-Ala-Arg-Gln-Ala-Arg-Ala-Gly-Arg-Gly-Phe-Val-Ser-Thr-Thr; SEQ ID NO:8). The STAT-6-IP and STAT-6-CP were added to splenocyte cultures daily. Treatment with the STAT-6-IP, but not the STAT-6-CP, reduced the supernatant levels of both IL-4 and IL-13 (Table 3).
(§3) BALB/c mice were sensitized systemically by two weekly i.p. injections of 0.025% ovalbumin mixed with 4 mg/mL Al(OH)3. One week after the second sensitization, mice were sacrificed and spleens harvested. A single cell suspension of splenocytes (5×10^6 cells/mL) was cultured in RPMI-1640 medium containing 10% heat-inactivated fetal bovine serum and 2 mM L-glutamine, 50 μM 2-mercaptoethanol, 100 U/mL penicillin, and 100 μg/mL streptomycin sulfate. Splenocytes were cultured for four days in the presence or absence of 100 μg/mL ovalbumin, either alone or with 100 μM STAT-6-IP or STAT-6-CP, which were added daily. After four days, culture supernatants were harvested to quantify cytokine production by ELISA. […] Cytokine expression was monitored by flow cytometry and analyzed using CELLQUEST™ software (Becton Dickinson). […]
A general note: An ELISA detects its analyte on a solid surface through an enzyme-linked reagent.

In the next assay the test system is IFN-gamma. Kind of assay: Ovalbumin-induced IFN-gamma production by splenocytes from ovalbumin-sensitized mice (ELISA). Conditions: ovalbumin 100 μg/mL + 100 μM peptide added daily, four days; ovalbumin alone 567.9 ± 93.1. On the procedure: as §2, §3
A further assay has as its system IL-4. Kind of assay: Ovalbumin-induced IL-4 production by splenocytes from ovalbumin-sensitized mice (ELISA). The conditions noted are these: ovalbumin 100 μg/mL + 100 μM peptide added daily, four days; ovalbumin alone 309.3 ± 49.6. On the procedure:
as §2, §3

Another assay concerns IFN-gamma mRNA. Kind of assay: Semiquantitative RT-PCR of IFN-gamma mRNA in splenocytes. The conditions noted are these: splenocytes cultured with ovalbumin plus peptide. As for the experimental part:
as §1
Reverse transcriptase (RT)-PCR was used to monitor expression of mRNAs encoding IL-4, IL-13 and IFN-gamma. Materials for RNA extraction and RT-PCR were purchased from INVITROGEN™ Canada (Burlington, Ontario). Total RNA was extracted from splenocytes, treated with DNAse, and 1 μg of RNA was reverse transcribed into cDNA using SUPERSCRIPT™ II reverse transcriptase. […] PCR products were resolved by gel electrophoresis and visualized and quantified on a FLUORCHEM™ 8000 Imaging System (Alpha Innotech, San Leandro, Calif.) using ALPHAEASE™ software (Alpha Innotech). […]

Where no end group is shown, it is not given here.

As for “YARAAARQARAGRGFVSTT [STAT-6-CP, STAT-6 Tyr-641 mutant, control peptide]”, the “Percentage of IL4 positive cells ± SEM” value in assay [1] is 92.13 ± 5.62 Percentage. For the same sequence, the “IL-13 (pg/mL ± SEM), culture supernatant” value with IL-13 is given as 2136.2 ± 94.7 pg/mL. In the assay on IFN-gamma, the “IFN-gamma (pg/mL ± SEM), culture supernatant” value worked out at 513.6 ± 118.3 pg/mL. In the assay on IL-4, the “IL-4 (pg/mL ± SEM), culture supernatant” value is listed as 212.9 ± 4.1 pg/mL. Besides, the “Expression of IFN-gamma mRNA” value in the assay with IFN-gamma mRNA is reported as “did not change”.

The values are drawn from US7829528B2, “Compositions and methods for treating STAT-6 associated diseases or conditions” (The Rockefeller University, priority 2004, dated 2010).
